Reference: article PMC12114633, “α-Glucosidase Inhibition Mechanism and Anti-Hyperglycemic Effects of Flavonoids from Astragali Radix and Their Mixture Effects” (Pharmaceuticals, 2025)
Read-outs that look alike come from different tables or passages of the source.

Assays:
[1] = target: T1, Saccharomyces cerevisiae α-glucosidase (Saccharomyces cerevisiae, UniProt P53341); experiment: biochemical; details: 5 mM pNPG, PBS pH 6.8, 37 °C
T1 construct: purchased Shanghai Yuanye Biotechnology Co., Shanghai, China Lot No. M23HS178879 (catalogue number not given)
T1 sequence (P53341 whole entry): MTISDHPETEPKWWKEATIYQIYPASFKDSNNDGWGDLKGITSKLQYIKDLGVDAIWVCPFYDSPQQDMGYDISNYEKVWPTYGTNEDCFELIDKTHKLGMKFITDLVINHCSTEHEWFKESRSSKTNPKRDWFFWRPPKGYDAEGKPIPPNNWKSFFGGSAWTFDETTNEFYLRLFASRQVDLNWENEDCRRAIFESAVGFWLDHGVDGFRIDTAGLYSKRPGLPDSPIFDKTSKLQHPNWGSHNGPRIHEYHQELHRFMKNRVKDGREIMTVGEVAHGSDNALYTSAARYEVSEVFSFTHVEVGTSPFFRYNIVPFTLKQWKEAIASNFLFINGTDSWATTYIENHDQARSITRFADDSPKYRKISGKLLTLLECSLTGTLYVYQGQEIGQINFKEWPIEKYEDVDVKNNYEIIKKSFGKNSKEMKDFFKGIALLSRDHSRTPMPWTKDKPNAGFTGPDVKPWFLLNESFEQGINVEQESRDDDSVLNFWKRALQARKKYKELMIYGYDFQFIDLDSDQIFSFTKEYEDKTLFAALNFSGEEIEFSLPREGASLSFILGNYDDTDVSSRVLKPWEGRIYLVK
Experimental: (§1) The α-glucosidase inhibitory effects of flavonoids were evaluated as in a previous report with slight modifications (including changes in the concentrations of the enzyme, substrate, and Na2CO3). Briefly, 50 μL of phosphate-buffered saline (PBS, 0.1 M, pH 6.8), the test compound, and α-glucosidase (0.2 U/mL) were preincubated in a 96-well plate at 37 °C for 10 min. The reaction was then initiated by adding 50 μL of 5 mM pNPG as the substrate. Subsequently, the 96-well plate was incubated for an additional 30 min at 37 °C, then 50 μL of 0.2 M Na2CO3 was added to terminate the reaction. Absorbance was measured at under 405 nm.

α-glucosidase [2] = target: T2, α-glucosidase (Saccharomyces cerevisiae, UniProt P53341); experiment: Inhibitory kinetic analysis (Lineweaver–Burk plot); type: biochemical; details: Lineweaver–Burk plots, pNPG 0.31–20 mM
T2 construct: purchased Shanghai Yuanye Biotechnology Co., Shanghai, China Lot No. M23HS178879 (catalogue number not given)
T2 sequence (P53341 whole entry): as above
Experimental: The type of inhibition was determined by using the kinetics curve and the Lineweaver–Burk plot. […] These compounds were incubated with α-glucosidase at 37 °C for 30 min. After incubation, various concentrations of pNPG (0.31–20 mM) were added, and absorbance was measured at 405 nm. The Lineweaver–Burk plot was obtained by plotting 1/[S] on the x-axis and 1/v on the y-axis, where [S] represents substrate concentration and v represents the reaction velocity.

α-glucosidase [3] = target: T2, α-glucosidase; experiment: CD spectroscopy, secondary structure of α-glucosidase (BeStSel); details: for β-turn: free enzyme 11.7; for β-sheet: free enzyme 28.8; for random coil: free enzyme 45.2; for α-helix: free enzyme 14.4
Experimental: CD spectra in the far-UV region (190–250 nm) were scanned by using a CD spectrometer (JASCO-1.5 Tokyo, Japan). […] The slit width was set to 1 nm, and the baseline was calibrated with PBS (phosphate buffered saline). CD spectra were averaged over three scans under a constant nitrogen flow, with the buffer signal subtracted. The results were analyzed using the BeStSel database (https://bestsel.elte.hu/index.php, accessed on 16 May 2025).

α-glucosidase [4] = target: T2, α-glucosidase; experiment: biochemical; type: binding; details: for binding to α-glucosidase (SPR): result in words
Experimental: SPR analysis was performed using the Biacore 8K system (GE Healthcare, Uppsala, Sweden). α-Glucosidase (0.05 mg/mL) was fixed on the CM5 sensor chip by an amine coupling kit. Subsequently, various concentrations of the 16 flavonoids dissolved in 5% DMSO were continuously injected onto the surface of α-glucosidase coated surface. After each sample injection, the sensor chip surface was washed and regenerated with running buffer (PBS) at a flow rate of 30 µL/min. According to the 1:1 Langmuir model, the equilibrium dissociation constant (KD) was calculated by the Biacore evaluation software. For sensorgrams without significant kinetic features, the KD values were calculated using the steady-state analysis.

α-glucosidase [5] = target: T2, α-glucosidase; experiment: Mixture effects of flavonoid combinations on α-glucosidase; type: biochemical; details: calculated from the dose–response curve
Experimental: as §1
The inhibitory activity of the composition was evaluated using the same method described in Section 3.2. […] The combination index (CI, Formula (3)) was subsequently used to assess the interactions between the compounds [60].(2) Y=Bottom+Top−Bottom/1+10^^((LogIC50−X)×HillSlope)
In Formula (3), (D)j represents the concentration of component j in the mixture needed to achieve an effect of x, while (Dx)j denotes the concentration of component j required to produce the same effect when acting alone. Here, x refers to the inhibition rate produced by the composition, and n indicates the number of individual compounds in the composition.

normal C57BL/6J mice = experiment: Oral sucrose test, postprandial blood glucose; type: in vivo; details: for Blood glucose levels: 30 min after sucrose 4 g/kg, n = 8, in mmol/L (unit assumed); for Rate of blood glucose reduction: vs model group, 30 min after sucrose
Excerpt: Male C57BL/6J mice of SPF grade, aged 6–8 weeks and weighing 18–22 g, were obtained from the Experimental Animal Science Department of Peking University. The mice were housed in a controlled environment with a 12:12 light/dark cycle and a constant temperature. They were provided with standard pellet feed and given free access to drinking water. To ensure acclimatization, the mice were allowed to adjust to the diet and housing conditions for one week prior to the experiment. All animal experiments were performed in compliance with the relevant laws and institutional guidelines for the care and use of laboratory animals in China. The experiments were approved by the Laboratory Animal Management and Ethics Committee of Peking University (LA2021443). Additionally, the certification number for the laboratory animal personnel is 1120111300011.
The 16 flavonoids were subsequently evaluated for their potential antihyperglycemic effects by using the oral sucrose test, which is commonly used to evaluate intestinal α-glucosidase inhibition in vivo [62]. Normal C57BL/6J mice were randomly divided into model groups and the 16 flavonoid compound groups (n = 8 per group), respectively. The flavonoids at different concentrations were suspended in 0.5% sodium carboxymethyl cellulose (CMC-Na). […] Fifteen minutes after drug administration, the mice were given a sucrose solution (4 g/kg). Blood samples were collected from the tail vein at 30 min after sucrose loading, and blood glucose levels were measured using an Accu-Chek Performa glucometer (Roche Diagnostics, SN: 79508621393, Shanghai, China). The rate of blood glucose reduction was calculated using the following Formula (4):(4) The rate of blood glucose reduction%=the model blood glucose-the sample blood glucose/the model blood glucose×100%

α-glucosidase [6] = details: cited from earlier work
[7] = α-glucosidase 0.2 U/mL, read-out: IC50
[8] = molar ratio 10:1, α-glucosidase 4 μM
[9] = molar ratio 40:1, α-glucosidase 4 μM
[10] = molar ratio compound:α-glucosidase 10:1, α-glucosidase 4 μM
[11] = kinetic model (1:1 Langmuir), read-out: KD
[12] = literature values, reference given, read-out: IC50 in References

Row | Compound | type of inhibition on α-glucosidase (α-glucosidase [2]) | β-turn (α-glucosidase [3]; [8]) | β-sheet (α-glucosidase [3]; [8]) | random coil (α-glucosidase [3]; [8]) | β-turn (α-glucosidase [3]; [9]) | α-helix (α-glucosidase [3]; [9]) | β-sheet (α-glucosidase [3]; [9]) | random coil (α-glucosidase [3]; [9]) | α-helix (α-glucosidase [3]; [10]) | IC05 (α-glucosidase [5]) | Blood glucose levels (normal C57BL/6J mice; 10 mg/kg oral) | Rate of blood glucose reduction (normal C57BL/6J mice; 10 mg/kg oral) | Blood glucose levels (normal C57BL/6J mice; 100 mg/kg oral) | Rate of blood glucose reduction (normal C57BL/6J mice; 100 mg/kg oral) | IC50 ([1]; IC50, α-glucosidase 0.2 U/mL) | Kd (α-glucosidase [4]) | binding to α-glucosidase (SPR) (α-glucosidase [4]) | Blood glucose levels (normal C57BL/6J mice; 50 mg/kg oral) | Rate of blood glucose reduction (normal C57BL/6J mice; 50 mg/kg oral) | also measured
1 | COc1ccc2c(c1OC)OC1c3ccc(O[C@@H]4O[C@H](CO)[C@@H](O)[C@H](O)[C@H]4O)cc3OCC21 (stereo partly shown) [C19, astrapterocarpan-3-O-glucoside] | non-competitive inhibitors | 10.7% | 26.7% | 39.9% | 10.2% | 43.2% | 6.70% | 39.9% | 22.6% | 82.58 µM | 13.71 ± 0.78 | 11.17% | 13.31 ± 0.58 | 13.77% | – | – | – | – | – | IC50 [1, 7]: 348 ± 32.4 µM; Kd (α-glucosidase [4]; [11]): 30 µM; Blood glucose levels (normal C57BL/6J mice; 1 mg/kg oral): 14.30 ± 1.16; Rate of blood glucose reduction (normal C57BL/6J mice; 1 mg/kg oral): 7.37%
2 | O=c1c(-c2ccc(O)cc2)coc2cc(O)ccc12 [C11, daidzein] | non-competitive inhibitors | 12.7% | 28.8% | 40.8% | 14.3% | 14.6% | 25.5% | 45.5% | 17.7% | – | – | – | – | – | 83.7 ± 20.2 µM | 20 µM | – | – | – | IC50 (α-glucosidase [6]; [12]): 150 µM
3 | O=C1C[C@@H](c2ccc(O)cc2)Oc2cc(O)ccc21 [C3, liquiritigenin] | non-competitive inhibitors | 14.2% | 18.0% | 56.1% | 16.2% | 8.00% | 16.6% | 59.2% | 11.7% | 13.71 µM | 14.06 ± 1.45 | -0.90% | 11.58 ± 1.23 | 16.95% | 161 ± 36.3 µM | > 2000 µM | did not show binding | 13.19 ± 1.35 | 5.38% | –
4 | CC(=O)Cc1cc(=O)c2c(C)cc(O)c([C@@H]3O[C@H](CO)[C@@H](O)[C@H](O)[C@H]3OC(=O)/C=C/c3ccc(O)cc3)c2o1 [Aloeresin A, reference compound] | – | – | – | – | – | – | – | – | – | – | – | – | – | – | – | – | – | – | – | IC50 (α-glucosidase [6]; read-out: IC50): 11900 µM
5 | aquilarixanthone [reference compound] | – | – | – | – | – | – | – | – | – | – | – | – | – | – | – | – | – | – | – | IC50 (α-glucosidase [6]; read-out: IC50): 678 µM
6 | Oc1ccc([C@H]2COc3cc(O)ccc3C2)cc1 [C29, equol] | mixed-type inhibitors | 14.5% | 23.5% | 51.1% | 13.2% | 8.50% | 23.4% | 55.0% | 10.9% | – | 14.70 ± 1.36 | 8.20% | 12.56 ± 1.87 | 21.55% | 131 ± 7.65 µM | 849 µM | – | 13.93 ± 0.62 | 13.04% | –
7 | O=C(/C=C/c1ccc(O)cc1)c1ccc(O)cc1O [C4, isoliquiritigenin] | mixed-type inhibitors | 11.7% | 31.0% | 42.3% | 12.1% | 14.1% | 24.1% | 49.7% | 15.0% | 9.73 µM | 12.81 ± 1.00 | 8.07% | – | – | 69.1 ± 10.7 µM | > 2000 µM | did not show binding | 13.05 ± 1.44 | 6.37% | IC15 (concentration corresponding to a 15% inhibition rate) (α-glucosidase [5]): 20 µM; Blood glucose levels (normal C57BL/6J mice; 250 mg/kg oral): 11.90 ± 0.62; Rate of blood glucose reduction (normal C57BL/6J mice; 250 mg/kg oral): 14.62%
8 | COc1ccc(C2COc3cc(O)ccc3C2)c(O)c1OC (stereo not shown) [C17, isomucronulatol] | mixed-type inhibitors | 11.7% | 24.3% | 49.4% | 13.6% | 17.4% | 31.3% | 37.8% | 14.6% | – | 14.46 ± 0.69 | 6.32% | 13.24 ± 1.18 | 14.25% | 354 ± 40.4 µM | > 2000 µM | did not show binding | 14.29 ± 0.80 | 7.45% | –
9 | COc1cc(-c2oc3cc(O)cc(O)c3c(=O)c2OC2OC(CO)C(O)C(O)C2O)ccc1O (stereo not shown) [C14, isorhamnetin-3-O-glucoside] | mixed-type inhibitors | 12.8% | 33.7% | 40.4% | 15.7% | 7.80% | 19.8% | 56.6% | 13.1% | – | 14.84 ± 0.62 | -2.50% | 12.19 ± 0.81 | 15.80% | – | – | – | 12.66 ± 0.48 | 12.52% | IC50 [1, 7]: 228 ± 34 µM; Kd (α-glucosidase [4]; [11]): 383 µM; IC50 (α-glucosidase [6]; [12]): 275 µM
